Legend:
smallflower flatsedge = assay: Test B flood test smallflower flatsedge; type: in vivo, Cyperus difformis
How it was run: (§1)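 Read-out is a visual response score from 0 (no effect) to 10 (complete control), assigned by comparison with untreated controls. Treatment was applied at the 2-leaf stage, and plants stayed in the greenhouse for twelve to sixteen days before scoring.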

soybean = assay: Test B pre/postemergence soybean; type: in vivo, Glycine max
How it was run: (§2)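 Herbicidal effect was estimated by eye on a ten-point control scale after plants spent twelve to sixteen days in a greenhouse following soil or foliar treatment. Foliar sprays targeted plants at one to four leaves; all doses were formulated in a non-phytotoxic solvent with surfactant.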

velvetleaf = assay: Test B pre/postemergence velvetleaf; type: in vivo, Abutilon theophrasti
How it was run: as §2

duck salad = assay: Test B flood test duck salad; type: in vivo, Heteranthera limosa
How it was run: as §1

bamyardgrass = assay: Test B flood test barnyardgrass; type: in vivo, Echinochloa crus-galli
How it was run: as §1

morningglory = assay: Test B pre/postemergence morningglory; type: in vivo, Ipomoea hederacea
How it was run: as §2

pigweed = assay: Test B pre/postemergence pigweed; type: in vivo, Amaranthus retroflexus
How it was run: as §2

purple nutsedge = assay: Test B pre/postemergence purple nutsedge; type: in vivo, Cyperus rotundus
How it was run: as §2

rape = assay: Test B pre/postemergence rape; type: in vivo, Brassica napus
How it was run: as §2

giant foxtail = assay: Test B pre/postemergence giant foxtail; type: in vivo, Setaria faberii
How it was run: as §2

cocklebur = assay: Test B pre/postemergence cocklebur; type: in vivo, Xanthium strumarium
How it was run: as §2

sugar beet = assay: Test B pre/postemergence sugar beet; type: in vivo, Beta vulgaris
How it was run: as §2

corn = assay: Test B pre/postemergence corn; type: in vivo, Zea mays
How it was run: as §2

blackgrass = assay: Test B pre/postemergence blackgrass; type: in vivo, Alopecurus myosuroides
How it was run: as §2

surinam grass = assay: Test B pre/postemergence surinam grass; type: in vivo, Brachiaria decumbens
How it was run: as §2

bedstraw = assay: Test B pre/postemergence bedstraw; type: in vivo, Galium aparine
How it was run: as §2

[1] = Rate 62 g/ha, headed Pre-emergence (flood test species), scale 0 to 10 (0 no effect, 10 complete control)
[2] = Rate 125 g/ha, Pre-emergence, flood test species, scale 0 to 10 where 0 is no effect and 10 is complete control
[3] = Rate 250 g/ha, headed Pre-emergence (flood test species), scale 0 to 10 (0 no effect, 10 complete control)
[4] = Rate 500 g/ha, headed Pre-emergence (flood test species), scale 0 to 10 (0 no effect, 10 complete control)
[5] = Postemergence, Rate 125 g/ha, scale of 0 to 10 where 0 is no effect and 10 is complete control
[6] = Preemergence, Rate 62 g/ha, scale 0 to 10 (0 no effect, 10 complete control)
[7] = Preemergence, Rate 125 g/ha, 0 is no effect, 10 is complete control
[8] = Preemergence, Rate 250 g/ha, scale 0 to 10, 0 is no effect, 10 is complete control
[9] = Preemergence, Rate 500 g/ha, scale 0 to 10 (0 no effect, 10 complete control)
[10] = Rate 62 g/ha, Postemergence, scale of 0 to 10 where 0 is no effect and 10 is complete control
[11] = Rate 250 g/ha, Postemergence, scale 0 to 10, 0 is no effect, 10 is complete control
[12] = Rate 500 g/ha, Postemergence, scale 0 to 10

CC(C)N(C(=O)n1oc(=O)n(C(C)C)c1=O)c1ccc(F)cc1 [Compound 131]
9: Velvetleaf plant response rating (velvetleaf; [8]) | Plant response rating, Ducksalad (duck salad; [4]) | Barnyardgrass plant response rating (bamyardgrass; [3]) | Plant response rating, Barnyardgrass (bamyardgrass; [4]) | Rape plant response rating (rape; [12]) | Plant response rating, Giant foxtail (giant foxtail; [11]) | Giant foxtail plant response rating (giant foxtail; [12]) | Corn plant response rating (corn; [8]) | Blackgrass plant response rating (blackgrass; [12]) | B. signalgrass plant response rating (surinam grass; [9]) | B. signalgrass plant response rating (surinam grass; Rate 500 g/ha, Postemergence, scale of 0 to 10 where 0 is no effect and 10 is complete control) | Plant response rating, Bedstraw (bedstraw; [11]) | Bedstraw plant response rating (bedstraw; Rate 500 g/ha, Postemergence, scale 0 to 10, 0 no effect, 10 complete control)
1: Rape plant response rating (rape; [10])
3: S. Flatsedge plant response rating (smallflower flatsedge; [2]) | Soybean plant response rating (0 to 10 scale) (soybean; [7]) | Morningglory plant response rating (morningglory; [6]) | Morningglory plant response rating (0 to 10 scale) (morningglory; [7]) | Cocklebur plant response rating (cocklebur; [5]) | Sugarbeets plant response rating (sugar beet; [5]) | Corn plant response rating (corn; [10])
8: S. Flatsedge plant response rating (smallflower flatsedge; [3]) | Plant response rating, S. Flatsedge (smallflower flatsedge; [4]) | Soybean plant response rating (soybean; [8]) | Soybean plant response rating (soybean; [9]) | Plant response rating, Soybean (soybean; [11]) | Soybean plant response rating (soybean; [12]) | Velvetleaf plant response rating (0 to 10 scale) (velvetleaf; [7]) | Plant response rating, Velvetleaf (velvetleaf; [11]) | Velvetleaf plant response rating (velvetleaf; [12]) | Plant response rating, Morningglory (morningglory; [11]) | Plant response rating, Redroot pigweed (pigweed; [11]) | Rape plant response rating (rape; [6]) | Giant foxtail plant response rating (giant foxtail; [5]) | Giant foxtail plant response rating (giant foxtail; [10]) | Sugarbeets plant response rating (0 to 10 scale) (sugar beet; [7]) | Sugarbeets plant response rating (sugar beet; [12]) | Blackgrass plant response rating (blackgrass; [5]) | Blackgrass plant response rating (blackgrass; [10]) | Plant response rating, Blackgrass (blackgrass; [11]) | B. signalgrass plant response rating (0 to 10 scale) (surinam grass; [7]) | B. signalgrass plant response rating (surinam grass; [8]) | Plant response rating, B. signalgrass (surinam grass; [11]) | Bedstraw plant response rating (bedstraw; [5])
5: Soybean plant response rating (soybean; [10]) | Morningglory plant response rating (morningglory; [8]) | Plant response rating, Cocklebur (cocklebur; [11]) | Cocklebur plant response rating (cocklebur; [12]) | Corn plant response rating (corn; [5]) | Corn plant response rating (0 to 10 scale) (corn; [7]) | B. signalgrass plant response rating (surinam grass; [5])
0: S. Flatsedge plant response rating (smallflower flatsedge; [1]) | Velvetleaf plant response rating (velvetleaf; [10]) | Ducksalad plant response rating (duck salad; [1]) | Ducksalad plant response rating (duck salad; [2]) | Barnyardgrass plant response rating (bamyardgrass; [1]) | Barnyardgrass plant response rating (bamyardgrass; [2]) | Nutsedge plant response rating (purple nutsedge; [5]) | Nutsedge plant response rating (purple nutsedge; [6]) | Nutsedge plant response rating (0 to 10 scale) (purple nutsedge; [7]) | Nutsedge plant response rating (purple nutsedge; [8]) | Nutsedge plant response rating (purple nutsedge; [9]) | Nutsedge plant response rating (purple nutsedge; [10]) | Plant response rating, Nutsedge (purple nutsedge; [11]) | Cocklebur plant response rating (cocklebur; [6]) | Cocklebur plant response rating (0 to 10 scale) (cocklebur; [7]) | Corn plant response rating (corn; [6])
6: Redroot pigweed plant response rating (pigweed; [5]) | Plant response rating, Sugarbeets (sugar beet; [11]) | Plant response rating, Corn (corn; [11])
10: Velvetleaf plant response rating (velvetleaf; [9]) | Morningglory plant response rating (morningglory; [12]) | Redroot pigweed plant response rating (0 to 10 scale) (pigweed; [7]) | Redroot pigweed plant response rating (pigweed; [8]) | Redroot pigweed plant response rating (pigweed; [9]) | Redroot pigweed plant response rating (pigweed; [12]) | Rape plant response rating (0 to 10 scale) (rape; [7]) | Rape plant response rating (rape; [8]) | Rape plant response rating (rape; [9]) | Giant foxtail plant response rating (giant foxtail; [6]) | Giant foxtail plant response rating (0 to 10 scale) (giant foxtail; [7]) | Giant foxtail plant response rating (giant foxtail; [8]) | Giant foxtail plant response rating (giant foxtail; [9]) | Sugarbeets plant response rating (sugar beet; [8]) | Sugarbeets plant response rating (sugar beet; [9]) | Corn plant response rating (corn; [9]) | Blackgrass plant response rating (blackgrass; [6]) | Blackgrass plant response rating (0 to 10 scale) (blackgrass; [7]) | Blackgrass plant response rating (blackgrass; [8]) | Blackgrass plant response rating (blackgrass; [9]) | Bedstraw plant response rating (0 to 10 scale) (bedstraw; [7]) | Bedstraw plant response rating (bedstraw; [8]) | Bedstraw plant response rating (bedstraw; [9])
4: Rape plant response rating (rape; [5]) | B. signalgrass plant response rating (surinam grass; [10])
2: Soybean plant response rating (soybean; [6]) | Redroot pigweed plant response rating (pigweed; [10]) | Nutsedge plant response rating (purple nutsedge; [12]) | Cocklebur plant response rating (cocklebur; [8]) | Cocklebur plant response rating (cocklebur; [9]) | Cocklebur plant response rating (cocklebur; [10]) | Sugarbeets plant response rating (sugar beet; [10])
7: Soybean plant response rating (soybean; [5]) | Velvetleaf plant response rating (velvetleaf; [5]) | Velvetleaf plant response rating (velvetleaf; [6]) | Ducksalad plant response rating (duck salad; [3]) | Morningglory plant response rating (morningglory; [5]) | Morningglory plant response rating (morningglory; [9]) | Morningglory plant response rating (morningglory; [10]) | Redroot pigweed plant response rating (pigweed; [6]) | Plant response rating, Rape (rape; [11]) | Sugarbeets plant response rating (sugar beet; [6]) | Corn plant response rating (corn; [12]) | B. signalgrass plant response rating (surinam grass; [6]) | Bedstraw plant response rating (bedstraw; [10])

Source: patent US6737383B1, “Herbicidal oxadiazolidines” (priority 1999, dated 2004)
